pIC50: −log10 of the molar value. Several values for one entry are separate records, joined by “and”; a condition that tells them apart may be missing. Equal values may be shown once. Each block holds one compound with its values, some of them ahead of it.
Test system: 648629-189-R-J1-PDC complex spheroids viability
Assay: Anticancer human tumor 648629-189-R-J1-PDC patient-derived bladder carcinoma cell line growth inhibition [CLK]
Conditions: for viability, T/C: stronger effect = lower value
How it was run: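 Patient-derived tumor cells grown as complex spheroids with HUVEC endothelial cells and mesenchymal stem cells, treated with drug combinations. Concentrations descend in half-log steps from near clinical Cmax, or from 10 microM if Cmax unknown.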
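For viability, T/C in this document: drug exposure lasted seven days before viability readout; 100% = DMSO vehicle control wells.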

pIC50 (curve of compound): 5.71 and 5.84
Compound: Nc1ccccc1NC(=O)c1ccc(CNC(=O)OCc2cccnc2)cc1
viability, T/C (compound 0.0316 µM): 115% and 88% | viability, T/C (compound 0.1 µM): 92.5% and 91.6% | viability, T/C (compound 0.316 µM): 88.5% and 77.7% | viability, T/C (compound 1 µM): 72.7% and 64% | viability, T/C (compound 3.16 µM): 33% and 24.8% | viability, T/C (compound 10 µM): 4.51% and 3.32%

pIC50 (curve of first compound, second compound 0.0316 µM): 5.23 | pIC50 (curve of first compound, second compound 0.1 µM): 5.02 | pIC50 (curve of first compound, second compound 0.316 µM): > 7.50 | pIC50 (curve of first compound, second compound 1 µM): > 7.50 | pIC50 (curve of first compound, second compound 3.16 µM): > 7.50 | pIC50 (curve of first compound, second compound 10 µM): > 7.50
Compound: CC(Nc1ccc2c(c1)OCCn1cc(N3C(=O)OCC3C(F)F)nc1-2)C(N)=O (centres undefined) + CNC(=O)c1ccc(Nc2nc(OC3CCCC3)c3c(-c4ccc5nc(C)oc5c4)c[nH]c3n2)c(OC)c1
viability, T/C (second compound 0.0316 µM, first compound 0.0316 µM): 114% | viability, T/C (second compound 0.0316 µM, first compound 0.1 µM): 106% | viability, T/C (second compound 0.0316 µM, first compound 0.316 µM): 89.4% | viability, T/C (second compound 0.0316 µM, first compound 1 µM): 67.8% | viability, T/C (second compound 0.0316 µM, first compound 3.16 µM): 64.9% | viability, T/C (second compound 0.0316 µM, first compound 10 µM): 40.6% | viability, T/C (second compound 0.1 µM, first compound 0.0316 µM): 95.7% | viability, T/C (second compound 0.1 µM, first compound 0.1 µM): 89.9% | viability, T/C (second compound 0.1 µM, first compound 0.316 µM): 84.1% | viability, T/C (second compound 0.1 µM, first compound 1 µM): 77.3% | viability, T/C (second compound 0.1 µM, first compound 3.16 µM): 62.2% | viability, T/C (second compound 0.1 µM, first compound 10 µM): 49.6% | viability, T/C (second compound 0.316 µM, first compound 0.0316 µM): 27.7% | viability, T/C (second compound 0.316 µM, first compound 0.1 µM): 37.6% | viability, T/C (second compound 0.316 µM, first compound 0.316 µM): 33.7% | viability, T/C (second compound 0.316 µM, first compound 1 µM): 34% | viability, T/C (second compound 0.316 µM, first compound 3.16 µM): 31.2% | viability, T/C (second compound 0.316 µM, first compound 10 µM): 27.1% | viability, T/C (second compound 1 µM, first compound 0.0316 µM): 17% | viability, T/C (second compound 1 µM, first compound 0.1 µM): 22.3% | viability, T/C (second compound 1 µM, first compound 0.316 µM): 18.5% | viability, T/C (second compound 1 µM, first compound 1 µM): 17.5% | viability, T/C (second compound 1 µM, first compound 3.16 µM): 16.6% | viability, T/C (second compound 1 µM, first compound 10 µM): 14.8% | viability, T/C (second compound 3.16 µM, first compound 0.0316 µM): 16.7% | viability, T/C (second compound 3.16 µM, first compound 0.1 µM): 20.3% | viability, T/C (second compound 3.16 µM, first compound 0.316 µM): 16.1% | viability, T/C (second compound 3.16 µM, first compound 1 µM): 17.8% | viability, T/C (second compound 3.16 µM, first compound 3.16 µM): 12.9% | viability, T/C (second compound 3.16 µM, first compound 10 µM): 15.9% | viability, T/C (second compound 10 µM, first compound 0.0316 µM): 21.5% | viability, T/C (second compound 10 µM, first compound 0.1 µM): 19.8% | viability, T/C (second compound 10 µM, first compound 0.316 µM): 17.2% | viability, T/C (second compound 10 µM, first compound 1 µM): 15% | viability, T/C (second compound 10 µM, first compound 3.16 µM): 21.8% | viability, T/C (second compound 10 µM, first compound 10 µM): 11.5%

Reference: PubChem BioAssay AID2060602 (Molecular Pharmacology Branch, DTP, NCI, 2025)
